Our source for the viability, T/C values is PubChem BioAssay AID2060497 (Molecular Pharmacology Branch, DTP, NCI, 2025).

SMILES strings stand for the structures.
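Note: spheroids exposed to compounds for one week before readout; percent viability relative to DMSO vehicle wells taken as 100%.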

The test system of one test is 317291-083-R-J1-PDC complex spheroids, viability. The test can be described thus: Anticancer human tumor 317291-083-R-J1-PDC patient-derived soft tissue sarcoma cell line growth inhibition [GQUAD]. The following applies: second compound 0.316 µM; first compound 1 µM; stronger effect = lower value. The procedure, abridged: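 Multi-cell-type spheroids of tumor cells with HUVEC and mesenchymal stem cells, treated with drug combinations. Concentrations descend in half-log steps from near clinical Cmax, or from 10 microM where Cmax is unknown; viability read-out.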
Take `CC(C)(O)C1CCC(Nc2ccc3ncc(-c4cccc(C(F)(F)F)c4)n3n2)CC1` (stereo unspecified) + CN(C)c1ccc(Nc2c3ccc(NC(=O)CCN4CCCC4)cc3nc3cc(NC(=O)CCN4CCCC4)ccc23)cc1: the viability, T/C (commonly the result in the treated group divided by that in the control group, in per cent) was 11.3%.
On the same count and under the same terms, the same measure for `C=CC(=O)N1CCN(c2nc(=O)n(-c3c(C)ccnc3C(C)C)c3nc(-c4c(O)cccc4F)c(F)cc23)C(C)C1` (stereo unspecified) + CN(C)c1ccc(Nc2c3ccc(NC(=O)CCN4CCCC4)cc3nc3cc(NC(=O)CCN4CCCC4)ccc23)cc1: 91.2%; for `C=CC(=O)N1CCN(c2nc(=O)n(-c3c(C)ccnc3C(C)C)c3nc(-c4c(O)cccc4F)c(F)cc23)C(C)C1` (stereo unspecified) + Cc1cnc(CNC(=O)c2c(=O)c3ccc(N4CCCN(C)CC4)nc3n3c2sc2ccccc23)cn1: 63.7%; for `COc1cc(C2c3cc4c(cc3C(OC3OC5COC(C)OC5C(O)C3O)C3COC(=O)C23)OCO4)cc(OC)c1O` (stereo unspecified) + Cc1[nH]c2ccc(F)cc2c1-c1nc2c3cccnc3c3ncccc3c2[nH]1: 22.5%.
Turning to `O=C(NO)c1cnc(N2CCN(S(=O)(=O)c3ccc4ccccc4c3)CC2)nc1` + Cc1cnc(CNC(=O)c2c(=O)c3ccc(N4CCCN(C)CC4)nc3n3c2sc2ccccc23)cn1, the viability, T/C was 0.07%.

Still in this test, the particulars now being: second compound 0.316 µM; first compound 3.16 µM; stronger effect = lower value.
Regarding `CC(C)(O)C1CCC(Nc2ccc3ncc(-c4cccc(C(F)(F)F)c4)n3n2)CC1` (stereo unspecified) + CN(C)c1ccc(Nc2c3ccc(NC(=O)CCN4CCCC4)cc3nc3cc(NC(=O)CCN4CCCC4)ccc23)cc1, the viability, T/C is 0.66%.
On the same count and under the same terms, the result for `C=CC(=O)N1CCN(c2nc(=O)n(-c3c(C)ccnc3C(C)C)c3nc(-c4c(O)cccc4F)c(F)cc23)C(C)C1` (stereo unspecified) + CN(C)c1ccc(Nc2c3ccc(NC(=O)CCN4CCCC4)cc3nc3cc(NC(=O)CCN4CCCC4)ccc23)cc1 reads 82.9%; that for `C=CC(=O)N1CCN(c2nc(=O)n(-c3c(C)ccnc3C(C)C)c3nc(-c4c(O)cccc4F)c(F)cc23)C(C)C1` (stereo unspecified) + Cc1cnc(CNC(=O)c2c(=O)c3ccc(N4CCCN(C)CC4)nc3n3c2sc2ccccc23)cn1, 46.9%; that for `COc1cc(C2c3cc4c(cc3C(OC3OC5COC(C)OC5C(O)C3O)C3COC(=O)C23)OCO4)cc(OC)c1O` (stereo unspecified) + Cc1[nH]c2ccc(F)cc2c1-c1nc2c3cccnc3c3ncccc3c2[nH]1, 14.5%.
`O=C(NO)c1cnc(N2CCN(S(=O)(=O)c3ccc4ccccc4c3)CC2)nc1` + Cc1cnc(CNC(=O)c2c(=O)c3ccc(N4CCCN(C)CC4)nc3n3c2sc2ccccc23)cn1: the viability, T/C is 0.02%.

Staying with this test, now noted: second compound 0.316 µM; first compound 10 µM; stronger effect = lower value.
In the case of `CC(C)(O)C1CCC(Nc2ccc3ncc(-c4cccc(C(F)(F)F)c4)n3n2)CC1` (stereo unspecified) + CN(C)c1ccc(Nc2c3ccc(NC(=O)CCN4CCCC4)cc3nc3cc(NC(=O)CCN4CCCC4)ccc23)cc1, the viability, T/C is 0.64%.
With `C=CC(=O)N1CCN(c2nc(=O)n(-c3c(C)ccnc3C(C)C)c3nc(-c4c(O)cccc4F)c(F)cc23)C(C)C1` (stereo unspecified) + CN(C)c1ccc(Nc2c3ccc(NC(=O)CCN4CCCC4)cc3nc3cc(NC(=O)CCN4CCCC4)ccc23)cc1, the viability, T/C is 51.4%.
The same measure, in the same setting: the same measure for `C=CC(=O)N1CCN(c2nc(=O)n(-c3c(C)ccnc3C(C)C)c3nc(-c4c(O)cccc4F)c(F)cc23)C(C)C1` (stereo unspecified) + Cc1cnc(CNC(=O)c2c(=O)c3ccc(N4CCCN(C)CC4)nc3n3c2sc2ccccc23)cn1: 47.3%; for `COc1cc(C2c3cc4c(cc3C(OC3OC5COC(C)OC5C(O)C3O)C3COC(=O)C23)OCO4)cc(OC)c1O` (stereo unspecified) + Cc1[nH]c2ccc(F)cc2c1-c1nc2c3cccnc3c3ncccc3c2[nH]1: 18.4%.
Take `O=C(NO)c1cnc(N2CCN(S(=O)(=O)c3ccc4ccccc4c3)CC2)nc1` + Cc1cnc(CNC(=O)c2c(=O)c3ccc(N4CCCN(C)CC4)nc3n3c2sc2ccccc23)cn1: the viability, T/C is 0.62%.

The same test, now with this note: second compound 1 µM; first compound 0.0316 µM; stronger effect = lower value.
For the compound `CC(C)(O)C1CCC(Nc2ccc3ncc(-c4cccc(C(F)(F)F)c4)n3n2)CC1` (stereo unspecified) + CN(C)c1ccc(Nc2c3ccc(NC(=O)CCN4CCCC4)cc3nc3cc(NC(=O)CCN4CCCC4)ccc23)cc1, the viability, T/C is 59.3%.
Still for that read-out and setting: the result for `C=CC(=O)N1CCN(c2nc(=O)n(-c3c(C)ccnc3C(C)C)c3nc(-c4c(O)cccc4F)c(F)cc23)C(C)C1` (stereo unspecified) + CN(C)c1ccc(Nc2c3ccc(NC(=O)CCN4CCCC4)cc3nc3cc(NC(=O)CCN4CCCC4)ccc23)cc1 reads 57%.
Still for that read-out and setting: the result for `C=CC(=O)N1CCN(c2nc(=O)n(-c3c(C)ccnc3C(C)C)c3nc(-c4c(O)cccc4F)c(F)cc23)C(C)C1` (stereo unspecified) + Cc1cnc(CNC(=O)c2c(=O)c3ccc(N4CCCN(C)CC4)nc3n3c2sc2ccccc23)cn1 reads 59.1%.
On the same count and under the same terms, the result for `COc1cc(C2c3cc4c(cc3C(OC3OC5COC(C)OC5C(O)C3O)C3COC(=O)C23)OCO4)cc(OC)c1O` (stereo unspecified) + Cc1[nH]c2ccc(F)cc2c1-c1nc2c3cccnc3c3ncccc3c2[nH]1 reads 84.7%.
Turning to `O=C(NO)c1cnc(N2CCN(S(=O)(=O)c3ccc4ccccc4c3)CC2)nc1` + Cc1cnc(CNC(=O)c2c(=O)c3ccc(N4CCCN(C)CC4)nc3n3c2sc2ccccc23)cn1, the viability, T/C is 43.9%.

The test is the same for the next values; noted with them: second compound 1 µM; first compound 0.1 µM; stronger effect = lower value.
Consider `CC(C)(O)C1CCC(Nc2ccc3ncc(-c4cccc(C(F)(F)F)c4)n3n2)CC1` (stereo unspecified) + CN(C)c1ccc(Nc2c3ccc(NC(=O)CCN4CCCC4)cc3nc3cc(NC(=O)CCN4CCCC4)ccc23)cc1, for which the viability, T/C was 25.4%.
Still for that read-out and setting: the result for `C=CC(=O)N1CCN(c2nc(=O)n(-c3c(C)ccnc3C(C)C)c3nc(-c4c(O)cccc4F)c(F)cc23)C(C)C1` (stereo unspecified) + CN(C)c1ccc(Nc2c3ccc(NC(=O)CCN4CCCC4)cc3nc3cc(NC(=O)CCN4CCCC4)ccc23)cc1 reads 44.1%; that for `C=CC(=O)N1CCN(c2nc(=O)n(-c3c(C)ccnc3C(C)C)c3nc(-c4c(O)cccc4F)c(F)cc23)C(C)C1` (stereo unspecified) + Cc1cnc(CNC(=O)c2c(=O)c3ccc(N4CCCN(C)CC4)nc3n3c2sc2ccccc23)cn1, 61.9%; that for `COc1cc(C2c3cc4c(cc3C(OC3OC5COC(C)OC5C(O)C3O)C3COC(=O)C23)OCO4)cc(OC)c1O` (stereo unspecified) + Cc1[nH]c2ccc(F)cc2c1-c1nc2c3cccnc3c3ncccc3c2[nH]1, 94.5%.
On the same count and under the same terms, the result for `O=C(NO)c1cnc(N2CCN(S(=O)(=O)c3ccc4ccccc4c3)CC2)nc1` + Cc1cnc(CNC(=O)c2c(=O)c3ccc(N4CCCN(C)CC4)nc3n3c2sc2ccccc23)cn1 reads 15.2%.

The test is the same for the next values; noted with them: second compound 1 µM; first compound 0.316 µM; stronger effect = lower value.
As to `CC(C)(O)C1CCC(Nc2ccc3ncc(-c4cccc(C(F)(F)F)c4)n3n2)CC1` (stereo unspecified) + CN(C)c1ccc(Nc2c3ccc(NC(=O)CCN4CCCC4)cc3nc3cc(NC(=O)CCN4CCCC4)ccc23)cc1, the viability, T/C is 28.7%.
